Results: the NIST ThermoML archive (doi:10.1021/je060271a)
“And” between values parts separate entries of the source, which are not always exact repeats. Equal values may be shown once.

Details: 283.14 K, Liquid, Vibrating tube method

CCCCCCC(=O)OCC(COC(=O)CCCCCC)(COC(=O)CCCCCC)COC(=O)CCCCCC [pentaerythritol tetraheptanoate]
Details | mass density
4385.6 kPa | 988.4 kg/m3
4385.7 kPa | 988.4 kg/m3 and 988.5 kg/m3
4385.8 kPa | 988.4 kg/m3
4385.9 kPa | 988.3 kg/m3 and 988.4 kg/m3 and 988.5 kg/m3
4386 kPa | 988.4 kg/m3 and 988.3 kg/m3
4386.1 kPa | 988.5 kg/m3 and 988.4 kg/m3 and 988.3 kg/m3
4386.2 kPa | 988.4 kg/m3
4386.5 kPa | 988.5 kg/m3
4386.7 kPa | 988.4 kg/m3
4387 kPa | 988.3 kg/m3 and 988.4 kg/m3
4387.4 kPa | 988.4 kg/m3
4388.1 kPa | 988.3 kg/m3
4388.6 kPa | 988.5 kg/m3
4392.2 kPa | 988.4 kg/m3
4392.3 kPa | 988.5 kg/m3
4393.3 kPa | 988.3 kg/m3
4394 kPa | 988.5 kg/m3
4394.1 kPa | 988.5 kg/m3
4394.5 kPa | 988.4 kg/m3
4394.7 kPa | 988.4 kg/m3
4395.2 kPa | 988.5 kg/m3 and 988.4 kg/m3
4395.7 kPa | 988.4 kg/m3
4396 kPa | 988.4 kg/m3
4396.2 kPa | 988.5 kg/m3
4396.6 kPa | 988.4 kg/m3
4401.3 kPa | 988.5 kg/m3
4404.8 kPa | 988.5 kg/m3
4409.8 kPa | 988.5 kg/m3
4413.5 kPa | 988.4 kg/m3
4417.1 kPa | 988.4 kg/m3
4421.1 kPa | 988.4 kg/m3
4425.8 kPa | 988.5 kg/m3
4429.6 kPa | 988.5 kg/m3
4433.4 kPa | 988.4 kg/m3
4437.9 kPa | 988.4 kg/m3
4441.9 kPa | 988.6 kg/m3
4445.5 kPa | 988.5 kg/m3
4450.3 kPa | 988.4 kg/m3
4452.1 kPa | 988.5 kg/m3
4456.8 kPa | 988.4 kg/m3
4460.9 kPa | 988.4 kg/m3
4464.4 kPa | 988.4 kg/m3
4469.4 kPa | 988.4 kg/m3
4473.1 kPa | 988.5 kg/m3
4476.9 kPa | 988.5 kg/m3
4480.5 kPa | 988.4 kg/m3
4485.5 kPa | 988.4 kg/m3
4489.5 kPa | 988.4 kg/m3
4493.3 kPa | 988.5 kg/m3
4498.2 kPa | 988.4 kg/m3
4502.1 kPa | 988.4 kg/m3
4505.9 kPa | 988.5 kg/m3
4509.9 kPa | 988.5 kg/m3
4513.7 kPa | 988.6 kg/m3
4518.2 kPa | 988.4 kg/m3
4521.7 kPa | 988.5 kg/m3
4525.7 kPa | 988.5 kg/m3
4529.3 kPa | 988.5 kg/m3
4533.1 kPa | 988.5 kg/m3
4539.2 kPa | 988.5 kg/m3
4548.9 kPa | 988.4 kg/m3
4556.8 kPa | 988.5 kg/m3
4564.8 kPa | 988.5 kg/m3
4572.9 kPa | 988.5 kg/m3
4583.2 kPa | 988.6 kg/m3
4591.3 kPa | 988.5 kg/m3
4599.9 kPa | 988.5 kg/m3
4607.7 kPa | 988.6 kg/m3
4617.4 kPa | 988.5 kg/m3
4625.9 kPa | 988.5 kg/m3
4635.9 kPa | 988.4 kg/m3
4644.3 kPa | 988.5 kg/m3
4652.7 kPa | 988.5 kg/m3
4663.3 kPa | 988.5 kg/m3
4671.8 kPa | 988.5 kg/m3
4680.4 kPa | 988.5 kg/m3
4689.1 kPa | 988.6 kg/m3
4697.7 kPa | 988.5 kg/m3
4708.3 kPa | 988.6 kg/m3
4717 kPa | 988.6 kg/m3
4726.5 kPa | 988.6 kg/m3
4737 kPa | 988.7 kg/m3
4746.4 kPa | 988.9 kg/m3
4755 kPa | 988.6 kg/m3
4774.4 kPa | 988.7 kg/m3
4781.5 kPa | 988.6 kg/m3
4786.9 kPa | 988.6 kg/m3
4792.4 kPa | 988.5 kg/m3
4799.3 kPa | 988.6 kg/m3
4804.7 kPa | 988.7 kg/m3
4810.6 kPa | 988.6 kg/m3
4816.1 kPa | 988.7 kg/m3
4823 kPa | 988.6 kg/m3
4828.9 kPa | 988.7 kg/m3
4834.3 kPa | 988.7 kg/m3
4841.2 kPa | 988.6 kg/m3
4847.3 kPa | 988.7 kg/m3
4853.2 kPa | 988.7 kg/m3
4858.7 kPa | 988.6 kg/m3
4865.8 kPa | 988.6 kg/m3
4871.7 kPa | 988.8 kg/m3
4877.4 kPa | 988.7 kg/m3
4884.1 kPa | 988.6 kg/m3
4890 kPa | 988.7 kg/m3
4895.9 kPa | 988.8 kg/m3
4902.8 kPa | 988.7 kg/m3
4908.7 kPa | 988.8 kg/m3
4914.6 kPa | 988.7 kg/m3
4920.6 kPa | 988.8 kg/m3
4927.9 kPa | 988.7 kg/m3
4934 kPa | 988.7 kg/m3
4940 kPa | 988.7 kg/m3
4946.3 kPa | 988.7 kg/m3
4953 kPa | 988.7 kg/m3
4959.8 kPa | 988.6 kg/m3
4965.7 kPa | 988.6 kg/m3
4971.9 kPa | 988.7 kg/m3
4978 kPa | 988.8 kg/m3
4985.2 kPa | 988.8 kg/m3
4991.3 kPa | 988.8 kg/m3
4997.3 kPa | 988.9 kg/m3
5004.4 kPa | 988.8 kg/m3
5010.7 kPa | 988.7 kg/m3
5016.9 kPa | 988.8 kg/m3
5023.1 kPa | 988.7 kg/m3
5031.1 kPa | 988.7 kg/m3
5036.4 kPa | 988.8 kg/m3
5043.4 kPa | 988.8 kg/m3
5049.8 kPa | 988.8 kg/m3
5057 kPa | 988.9 kg/m3
5063.3 kPa | 988.7 kg/m3
5069.3 kPa | 988.8 kg/m3
5075.9 kPa | 988.8 kg/m3
5083.3 kPa | 988.9 kg/m3
5089.6 kPa | 988.9 kg/m3
5095.8 kPa | 988.8 kg/m3
5103.7 kPa | 988.7 kg/m3
5110 kPa | 988.8 kg/m3
5116.5 kPa | 988.9 kg/m3
5122.9 kPa | 988.8 kg/m3
5129 kPa | 988.9 kg/m3
5137 kPa | 988.9 kg/m3
5192 kPa | 988.9 kg/m3
5198.7 kPa | 988.9 kg/m3
5206.7 kPa | 989 kg/m3
5213.1 kPa | 989 kg/m3
5219.7 kPa | 988.8 kg/m3
5227.4 kPa | 988.8 kg/m3
5234.2 kPa | 988.9 kg/m3
5241.1 kPa | 988.9 kg/m3
5247.7 kPa | 988.9 kg/m3
5255.5 kPa | 988.9 kg/m3
5262.2 kPa | 988.9 kg/m3
5269 kPa | 988.9 kg/m3
5277.1 kPa | 989 kg/m3
5284.2 kPa | 988.9 kg/m3
5291.1 kPa | 988.9 kg/m3
5298.2 kPa | 988.9 kg/m3
5306.7 kPa | 988.9 kg/m3
5313.1 kPa | 988.9 kg/m3
5319.7 kPa | 989 kg/m3
5326.9 kPa | 988.9 kg/m3
5335.6 kPa | 988.9 kg/m3
5342.3 kPa | 988.9 kg/m3
5349.4 kPa | 988.9 kg/m3
5357.5 kPa | 989 kg/m3
5365 kPa | 988.9 kg/m3
5371.7 kPa | 989 kg/m3
5380.2 kPa | 989 kg/m3
5387.5 kPa | 989 kg/m3
5394.7 kPa | 988.9 kg/m3
5401.6 kPa | 989.1 kg/m3
5410.1 kPa | 989 kg/m3
5417.6 kPa | 989 kg/m3
5424.8 kPa | 988.9 kg/m3
5433.5 kPa | 989 kg/m3
5440.6 kPa | 989.1 kg/m3
5447.7 kPa | 989.1 kg/m3
5455.3 kPa | 989 kg/m3
5463.1 kPa | 989.1 kg/m3
5471.2 kPa | 989.1 kg/m3
5478.6 kPa | 989 kg/m3
5485.9 kPa | 989.1 kg/m3
5494.7 kPa | 989.1 kg/m3
5502.5 kPa | 989.1 kg/m3
5509.9 kPa | 989 kg/m3
5517.5 kPa | 989.1 kg/m3
5526.7 kPa | 989.1 kg/m3
5534 kPa | 989.2 kg/m3
5541.8 kPa | 989.2 kg/m3
5549 kPa | 989.1 kg/m3
5565.4 kPa | 989.1 kg/m3
5582.7 kPa | 989.1 kg/m3
5591.5 kPa | 989.2 kg/m3
5599.8 kPa | 989.1 kg/m3
5607.5 kPa | 989.2 kg/m3
5615.5 kPa | 989.2 kg/m3
5624.1 kPa | 989.1 kg/m3
5632.1 kPa | 989.2 kg/m3
5640 kPa | 989.1 kg/m3
5649.2 kPa | 989.2 kg/m3
5657 kPa | 989.3 kg/m3
5665.1 kPa | 989.1 kg/m3
5674.3 kPa | 989.1 kg/m3
5682.4 kPa | 989.1 kg/m3
5690.4 kPa | 989.2 kg/m3
5697.6 kPa | 989.2 kg/m3
5705.8 kPa | 989.1 kg/m3
5714.2 kPa | 989.3 kg/m3
5724.3 kPa | 989.1 kg/m3
5732.6 kPa | 989.2 kg/m3
5739.8 kPa | 989.3 kg/m3
5774.2 kPa | 989.2 kg/m3
5783.6 kPa | 989.3 kg/m3
5791.5 kPa | 989.2 kg/m3
5800 kPa | 989.2 kg/m3
5810.4 kPa | 989.3 kg/m3
5818.7 kPa | 989.3 kg/m3
5827 kPa | 989.3 kg/m3
5837 kPa | 989.3 kg/m3
5845 kPa | 989.2 kg/m3
5854.3 kPa | 989.2 kg/m3
5862.6 kPa | 989.3 kg/m3
5871.8 kPa | 989.2 kg/m3
